Experimental data as given in patent US5430062A, “Stilbene derivatives as anticancer agents” (priority 1993, dated 1995).

Tests used:
[1] = tested on: MOLT-4 leukemia; assay: Cytotoxicity, MOLT-4; assay type: cell-based; details: Homo sapiens, read-out: Log10 GI50, MOLT-4 (converted)
Source text: (§1) A total of 55 cell lines from the leukemia, non-small cell lung cancer, small cell lung cancer, colon cancer, CNS cancer, melanoma, ovarian cancer, and renal cancer panels were examined.

[2] = tested on: RPMI-8226 leukemia; assay: Cytotoxicity, RPMI-8226; assay type: cell-based; details: Homo sapiens, read-out: Log10 GI50, RPMI-8226 (converted)
Source text: as §1

[3] = tested on: EKCK non-small cell lung cancer; assay: Cytotoxicity, EKCK; assay type: cell-based; details: read-out: Log10 GI50, EKCK (converted)
Source text: as §1

[4] = tested on: HOP-18 non-small cell lung cancer; assay: Cytotoxicity, HOP-18; assay type: cell-based; details: Homo sapiens, read-out: Log10 GI50, HOP-18 (converted)
Source text: as §1

[5] = tested on: HOP-62 non-small cell lung cancer; assay: Cytotoxicity, HOP-62; assay type: cell-based; details: Homo sapiens, read-out: Log10 GI50, HOP-62 (converted)
Source text: as §1

[6] = tested on: HOP-92 non-small cell lung cancer; assay: Cytotoxicity, HOP-92; assay type: cell-based; details: Homo sapiens, read-out: Log10 GI50, HOP-92 (converted)
Source text: as §1

[7] = tested on: NCI-H322M non-small cell lung cancer; assay: Cytotoxicity, NCI-H322M; assay type: cell-based; details: Homo sapiens, read-out: Log10 GI50, NCI-H322M (converted)
Source text: as §1

[8] = tested on: NCI-H460 non-small cell lung cancer; assay: Cytotoxicity, NCI-H460; assay type: cell-based; details: Homo sapiens, read-out: Log10 GI50, NCI-H460 (converted)
Source text: as §1

[9] = tested on: LXFL 529 non-small cell lung cancer; assay: Cytotoxicity, LXFL 529; assay type: cell-based; details: Homo sapiens, read-out: Log10 GI50, LXFL 529 (converted)
Source text: as §1

[10] = tested on: DMS114 small cell lung cancer; assay: Cytotoxicity, DMS114; assay type: cell-based; details: Homo sapiens, DMS-114; read-out: Log10 GI50, DMS114 (converted)
Source text: as §1

[11] = tested on: DLD-1 colon cancer; assay: Cytotoxicity, DLD-1; assay type: cell-based; details: Homo sapiens, read-out: Log10 GI50, DLD-1 (converted)
Source text: as §1

[12] = tested on: HCT-116 colon cancer; assay: Cytotoxicity, HCT-116; assay type: cell-based; details: Homo sapiens, read-out: Log10 GI50, HCT-116 (converted)
Source text: as §1

[13] = tested on: HT29 colon cancer; assay: Cytotoxicity, HT29 (Table XI panel); assay type: cell-based; details: Homo sapiens, HT-29; read-out: Log10 GI50, HT29 (converted)
Source text: as §1

[14] = tested on: KM20L2 colon cancer; assay: Cytotoxicity, KM20L2; assay type: cell-based; details: Homo sapiens, KM-20L2; read-out: Log10 GI50, KM20L2 (converted)
Source text: as §1

[15] = tested on: SF-539 CNS cancer; assay: Cytotoxicity, SF-539; assay type: cell-based; details: Homo sapiens, read-out: Log10 GI50, SF-539 (converted)
Source text: as §1

[16] = tested on: SNB-75 CNS cancer; assay: Cytotoxicity, SNB-75; assay type: cell-based; details: Homo sapiens, read-out: Log10 GI50, SNB-75 (converted)
Source text: as §1

[17] = tested on: SNB-78 CNS cancer; assay: Cytotoxicity, SNB-78; assay type: cell-based; details: Homo sapiens, read-out: Log10 GI50, SNB-78 (converted)
Source text: as §1

[18] = tested on: U251 CNS cancer; assay: Cytotoxicity, U251; assay type: cell-based; details: Homo sapiens, U-251; read-out: Log10 GI50, U251 (converted)
Source text: as §1

[19] = tested on: MALME-3M melanoma; assay: Cytotoxicity, MALME-3M; assay type: cell-based; details: Homo sapiens, read-out: Log10 GI50, MALME-3M (converted)
Source text: as §1

[20] = tested on: SK-MEL-2 melanoma; assay: Cytotoxicity, SK-MEL-2; assay type: cell-based; details: Homo sapiens, read-out: Log10 GI50, SK-MEL-2 (converted)
Source text: as §1

[21] = tested on: SK-MEL-5 melanoma; assay: Cytotoxicity, SK-MEL-5 (Table XI panel); assay type: cell-based; details: Homo sapiens, read-out: Log10 GI50, SK-MEL-5 (converted)
Source text: as §1

[22] = tested on: UACC-257 melanoma; assay: Cytotoxicity, UACC-257; assay type: cell-based; details: Homo sapiens, read-out: Log10 GI50, UACC-257 (converted)
Source text: as §1

[23] = tested on: UACC-62 melanoma; assay: Cytotoxicity, UACC-62; assay type: cell-based; details: Homo sapiens, read-out: Log10 GI50, UACC-62 (converted)
Source text: as §1

[24] = tested on: OVCAR-8 ovarian cancer; assay: Cytotoxicity, OVCAR-8; assay type: cell-based; details: Homo sapiens, read-out: Log10 GI50, OVCAR-8 (converted)
Source text: as §1

[25] = tested on: A498 renal cancer; assay: Cytotoxicity, A498; assay type: cell-based; details: Homo sapiens, read-out: Log10 GI50, A498 (converted)
Source text: as §1

[26] = tested on: ACHN renal cancer; assay: Cytotoxicity, ACHN; assay type: cell-based
Source text: as §1

[27] = tested on: RXF-393 renal cancer; assay: Cytotoxicity, RXF-393; assay type: cell-based; details: Homo sapiens, read-out: Log10 GI50, RXF-393 (converted)
Source text: as §1

[28] = tested on: SN12C renal cancer; assay: Cytotoxicity, SN12C; assay type: cell-based; details: Homo sapiens, read-out: Log10 GI50, SN12C (converted)
Source text: as §1

[29] = tested on: TK-10 renal cancer; assay: Cytotoxicity, TK-10; assay type: cell-based; details: Homo sapiens, read-out: Log10 GI50, TK-10 (converted)
Source text: as §1

[30] = tested on: UO-31 renal cancer; assay: Cytotoxicity, UO-31; assay type: cell-based; details: Homo sapiens, read-out: Log10 GI50, UO-31 (converted)
Source text: as §1

[31] = tested on: SF-295 CNS cancer; assay: Cytotoxicity, SF-295
[32] = tested on: CAKI-1 renal cancer; assay: Cytotoxicity, CAKI-1; details: read-out: cytotoxicity GI50, CAKI-1, 50% growth inhibition, average of two determinations, 8640 min, Hydrochloride
[33] = tested on: OVCAR-3 ovarian cancer; assay: Cytotoxicity, OVCAR-3; details: read-out: cytotoxicity GI50, OVCAR-3, 50% growth inhibition, average of two determinations, 8640 min, Hydrochloride

For `COc1cc(CNc2ccc(C)cc2)cc(OC)c1OC.Cl` [110a, 4-Methyl-N-(3,4,5-trimethoxybenzyl)aniline Hydrochloride], the GI50 [1] was 427 nM, the GI50 [2] was 437 nM and the GI50 [3] was 741 nM. It also gave a GI50 [4] of 37200 nM, a GI50 [5] of 282 nM and a GI50 [6] of 18600 nM. For the same compound, the GI50 [7] was 501 nM, the GI50 [8] was 214 nM and the GI50 [9] was 631 nM. It also gave a GI50 [10] of 427 nM, a GI50 [11] of 575 nM and a GI50 [12] of 575 nM. For the same compound, the GI50 [13] was 347 nM, the GI50 [14] was 251 nM and the GI50 [15] was 316 nM. It also gave a GI50 [16] of 389 nM, a GI50 [17] of 1100 nM and a GI50 [18] of 331 nM. The GI50 [19] was 468 nM, the GI50 [20] was 132 nM and the GI50 [21] was 912 nM. The GI50 [22] was > 100000 nM, the GI50 [23] was 575 nM and the GI50 [24] was 759 nM. The GI50 [25] was > 100000 nM, the GI50 ([26]; Homo sapiens, ACHN, read-out: Log10 GI50, ACHN (converted)) was < 100 nM and the “Log10 GI50, ACHN” value ([26]; Hydrochloride) was -7.01. For the same compound, the GI50 [27] was 112 nM, the GI50 [28] was 851 nM and the GI50 [29] was > 100000 nM. For the same compound, the GI50 [30] was 832 nM, the “Log10 GI50, SF-295” value [31] was -6.49 and the GI50 ([31]; read-out: cytotoxicity GI50, SF-295, 50% growth inhibition, average of two determinations, 8640 min, Hydrochloride, 8640 min) was 233 nM. The GI50 [32] was 162 nM and the GI50 [33] was 214 nM.
